“Also recorded” adds a separate entry of the source. Like-named read-outs stand apart in the source and are kept apart here. Each block holds one molecule with its values, some of them ahead of it.
How the values were obtained:
human β2‐adrenoceptor = human β2‐adrenoceptor (Homo sapiens, UniProt P07550); format: binding
human β1‐adrenoceptor = human β1‐adrenoceptor (Homo sapiens, UniProt P08588)
human α2A‐adrenoceptor [1] = molecular target: T1, human α2A‐adrenoceptor (Homo sapiens, UniProt P08913); assay: ^3H‐rauwolscine whole cell competition binding, CHO‐α2A cells
T1 sequence (P08913 1-465): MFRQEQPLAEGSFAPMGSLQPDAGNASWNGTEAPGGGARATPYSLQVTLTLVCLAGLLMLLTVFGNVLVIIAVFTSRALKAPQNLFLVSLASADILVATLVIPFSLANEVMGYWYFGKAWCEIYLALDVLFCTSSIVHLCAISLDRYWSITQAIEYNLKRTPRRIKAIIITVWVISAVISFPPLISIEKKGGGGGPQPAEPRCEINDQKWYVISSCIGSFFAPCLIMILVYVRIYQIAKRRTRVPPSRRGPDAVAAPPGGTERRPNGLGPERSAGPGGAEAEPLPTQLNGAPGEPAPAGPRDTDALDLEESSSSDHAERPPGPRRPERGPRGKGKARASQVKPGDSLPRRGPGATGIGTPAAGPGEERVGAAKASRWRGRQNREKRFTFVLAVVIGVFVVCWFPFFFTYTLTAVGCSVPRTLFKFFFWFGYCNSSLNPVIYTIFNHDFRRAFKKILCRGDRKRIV

human α2C‐adrenoceptor = molecular target: T2, human α2C‐adrenoceptor (Homo sapiens, UniProt P18825); assay: ^3H‐rauwolscine whole cell competition binding, CHO‐α2C cells
T2 sequence (P18825 1-462): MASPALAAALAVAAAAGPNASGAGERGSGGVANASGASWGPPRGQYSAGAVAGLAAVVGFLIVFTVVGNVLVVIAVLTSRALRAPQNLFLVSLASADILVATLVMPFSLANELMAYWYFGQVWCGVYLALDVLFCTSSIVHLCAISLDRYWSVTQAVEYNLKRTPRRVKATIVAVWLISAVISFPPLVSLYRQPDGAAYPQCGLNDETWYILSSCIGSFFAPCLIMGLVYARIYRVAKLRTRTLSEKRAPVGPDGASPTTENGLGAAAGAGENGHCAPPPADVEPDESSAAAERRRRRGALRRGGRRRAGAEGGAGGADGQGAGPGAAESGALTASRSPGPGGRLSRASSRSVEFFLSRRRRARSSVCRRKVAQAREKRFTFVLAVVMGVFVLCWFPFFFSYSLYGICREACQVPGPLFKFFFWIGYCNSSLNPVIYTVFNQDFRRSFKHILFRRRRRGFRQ

human α2B‐adrenoceptor = molecular target: T3, human α2B‐adrenoceptor (Homo sapiens, UniProt P18089); assay: ^3H‐rauwolscine whole cell competition binding, CHO‐α2B cells; conditions: for Log KD α2B: given as log KD (negative values), 3H-rauwolscine whole cell binding, CHO cells, mean ± s.e.mean
T3 sequence (P18089 1-450): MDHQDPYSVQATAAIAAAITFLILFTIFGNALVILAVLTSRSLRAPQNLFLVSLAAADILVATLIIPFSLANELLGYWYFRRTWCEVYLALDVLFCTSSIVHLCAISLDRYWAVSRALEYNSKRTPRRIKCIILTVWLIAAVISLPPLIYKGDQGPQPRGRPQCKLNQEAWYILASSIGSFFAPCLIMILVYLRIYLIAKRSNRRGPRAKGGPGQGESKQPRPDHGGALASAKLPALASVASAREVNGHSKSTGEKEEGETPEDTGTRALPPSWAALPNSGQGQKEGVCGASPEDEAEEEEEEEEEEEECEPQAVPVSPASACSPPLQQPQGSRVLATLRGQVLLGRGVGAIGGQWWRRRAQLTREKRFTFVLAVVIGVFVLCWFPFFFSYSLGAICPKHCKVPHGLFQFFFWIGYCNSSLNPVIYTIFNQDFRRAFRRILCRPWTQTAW

human α2A‐adrenoceptor [2] = molecular target: T1, human α2A‐adrenoceptor; assay: cell-based
[3] = ^3H‐CGP12177 whole cell binding, log values, mean ± s.e.mean, ^app = apparent KD, 'no binding to' = log top concentration
[4] = given as log KD (negative values), 3H-CGP12177 whole cell binding, CHO cells, mean ± s.e.mean
[5] = given as log KD (negative values), 3H-rauwolscine whole cell binding, CHO cells, mean ± s.e.mean
[6] = proportion of site 1 in two-site fit
[7] = two-component inhibition, proportion of higher affinity site

human β1‐adrenoceptor, sequence (P08588 whole entry): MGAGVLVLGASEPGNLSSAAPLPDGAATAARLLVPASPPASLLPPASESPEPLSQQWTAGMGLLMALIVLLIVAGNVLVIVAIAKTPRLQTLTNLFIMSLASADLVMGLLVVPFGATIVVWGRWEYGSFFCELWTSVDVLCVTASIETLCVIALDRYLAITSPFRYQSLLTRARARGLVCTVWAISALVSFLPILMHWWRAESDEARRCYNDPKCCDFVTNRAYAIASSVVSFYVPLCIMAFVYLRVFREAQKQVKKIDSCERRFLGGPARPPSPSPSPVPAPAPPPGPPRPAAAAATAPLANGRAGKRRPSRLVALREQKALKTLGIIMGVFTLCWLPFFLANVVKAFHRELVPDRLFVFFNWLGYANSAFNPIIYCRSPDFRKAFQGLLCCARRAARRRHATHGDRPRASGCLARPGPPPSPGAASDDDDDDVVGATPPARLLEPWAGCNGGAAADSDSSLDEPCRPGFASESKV
human β2‐adrenoceptor, sequence (P07550 whole entry): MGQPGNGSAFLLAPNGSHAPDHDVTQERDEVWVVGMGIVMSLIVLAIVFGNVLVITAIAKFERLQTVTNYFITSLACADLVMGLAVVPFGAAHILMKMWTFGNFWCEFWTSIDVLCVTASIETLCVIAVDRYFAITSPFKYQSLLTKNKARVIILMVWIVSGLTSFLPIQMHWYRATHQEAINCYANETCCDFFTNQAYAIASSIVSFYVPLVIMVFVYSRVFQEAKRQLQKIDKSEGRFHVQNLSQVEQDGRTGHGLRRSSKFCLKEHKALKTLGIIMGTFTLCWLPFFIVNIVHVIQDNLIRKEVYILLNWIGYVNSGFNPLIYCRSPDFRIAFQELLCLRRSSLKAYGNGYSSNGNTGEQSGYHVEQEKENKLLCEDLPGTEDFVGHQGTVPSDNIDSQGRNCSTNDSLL

- Log KD β2 (human β2‐adrenoceptor; [3]): No binding to −4
- Log KD β2 (human β2‐adrenoceptor; [4]): No binding to -4
- Log KD β1 (human β1‐adrenoceptor; [3]): No binding to −4
- Log KD β1 (human β1‐adrenoceptor; [4]): No binding to -4
- IC50 (human α2A‐adrenoceptor [1]): > 100 µM
- IC50 (human α2C‐adrenoceptor): > 100 µM
SMILES: CN(C)CCCC1(c2ccc(F)cc2)OCc2cc(C#N)ccc21 (centres unmarked) [citalopram]

- IC50 (human α2A‐adrenoceptor [1]): > 1000 µM
- Log KD α2B (human α2B‐adrenoceptor): No bind to -3
- Binding at α2B (result in words) (human α2B‐adrenoceptor; up to log concentration -3): No binding -3
- IC50 (human α2C‐adrenoceptor): > 1000 µM
SMILES: CC(C)(C)NCC(O)COc1cccc2[nH]c(=O)[nH]c12 (centres unmarked) [CGP12177]

- Log KD α2A (^app = apparent affinity) (human α2A‐adrenoceptor [1]; log KD, negative sign, apparent KD from extrapolated curve, maximum concentration inhibited most but not all specific binding): -4.86 ± 0.07^app
SMILES: CC(C)OC(=O)c1cc2c(OCC(O)CNC(C)(C)C)cccc2[nH]1 (centres unmarked) [SDZ 21009]

- Kd (human α2A‐adrenoceptor [2]): 1.95 µM
SMILES: CN(C)CCCN1c2ccccc2CCc2ccc(Cl)cc21 [clomipramine]

- Log KD α2A (human α2A‐adrenoceptor [1]; [5]): -5.03 ± 0.03
- IC50 (log) α2B (human α2B‐adrenoceptor; printed as log IC50 bound (negative) in the Log KD α2B column, 3H-rauwolscine): IC50>-4
- Log KD α2C (human α2C‐adrenoceptor; [5]): -5.05 ± 0.04
SMILES: Cc1ccc(OCC(O)C(C)NC(C)C)c2c1CCC2 (centres unmarked) [ICI 118551]

- Kd (human α2A‐adrenoceptor [2]): 10 µM
SMILES: CNCCCC1c2ccccc2C=Cc2ccccc21 [protriptyline]

The remaining lines, values behind:

SMILES: CN1[C@H]2C[C@H](OC(=O)[C@H](CO)c3ccccc3)C[C@@H]1[C@@H](O)C2 [anisodamine]
- Log KD β2 (human β2‐adrenoceptor): no binding to −3; also recorded: no binding to -3
- Log KD β1 (human β1‐adrenoceptor): no binding to −3; also recorded: no binding to -3
- IC50 (log) α2A, IC50>top concentration used (human α2A‐adrenoceptor [1]): IC50>−3
- IC50 (log) α2B, IC50>top concentration used (human α2B‐adrenoceptor): IC50>−3
- Log KD α2C (human α2C‐adrenoceptor): −3.56 ± 0.07^app

SMILES: COc1ccccc1N1CCN(CCCNc2c(C)c(=O)n(C)c(=O)n2C)CC1 [5-methyl-urapidil]
- Log KD β2 (human β2‐adrenoceptor): -5.00 ± 0.07
- Log KD α2A (human α2A‐adrenoceptor [1]; [5]): -5.18 ± 0.05
- Log KD α2B (human α2B‐adrenoceptor): -5.17 ± 0.05
- Log KD α2C (human α2C‐adrenoceptor; [5]): -5.81 ± 0.07

SMILES: CC(COc1ccccc1)N(CCCl)Cc1ccccc1 (centres unmarked) [phenoxybenzamine]
- % site 1 α2B (percentage through first component) (human α2B‐adrenoceptor): −6.44 ± 0.11 −4.89 ± 0.08 51.4 ± 3.3% site 1
- % site 1, α2B (human α2B‐adrenoceptor; [6]): 51.4 ± 3.3%
- % site 1, α2B (human α2B‐adrenoceptor; [7]): 51.4 ± 3.3%
- % site 1 α2C (percentage through first component) (human α2C‐adrenoceptor): −6.41 ± 0.11 −4.71 ± 0.13 74.1 ± 4.1% site 1
- % site 1, α2C (human α2C‐adrenoceptor; [6]): 74.1 ± 4.1%
- % site 1, α2C (human α2C‐adrenoceptor; [7]): 74.1 ± 4.1%

SMILES: CN1CC[C@]2(CCN3CCc4c(oc5ccccc45)[C@@H]3C2)N(C)C1=O [MK-912]
- IC50 (log) β2 (human β2‐adrenoceptor; printed as log IC50 bound (negative) in the Log KD β2 column, 3H-CGP12177): IC50>-4
- IC50 (log) β1 (human β1‐adrenoceptor; printed as log IC50 bound (negative) in the Log KD β1 column, 3H-CGP12177): IC50>-4
- Log KD α2A (human α2A‐adrenoceptor [1]): -8.71 ± 0.05
- Selectivity ratio α2A vs α2B (α2A-selective) (human α2A‐adrenoceptor [1]): 3.6
- Log KD α2B (human α2B‐adrenoceptor): -8.16 ± 0.10
- Log KD α2C (human α2C‐adrenoceptor): -9.82 ± 0.11
- Selectivity ratio α2A vs α2C (α2C-selective) (human α2C‐adrenoceptor): 12.9
- Selectivity ratio α2B vs α2C (α2C-selective) (human α2C‐adrenoceptor): 45.7

SMILES: CCC1(c2cnc[nH]2)Cc2ccccc2C1 [atipamezole]
- Log KD β2 (human β2‐adrenoceptor; [3]): No binding to −4.5
- Log KD β2 (human β2‐adrenoceptor; [4]): No binding to -4.5
- Log KD β1 (human β1‐adrenoceptor; [3]): No binding to −4.5
- Log KD β1 (human β1‐adrenoceptor; [4]): No binding to -4.5
- Kd (human α2A‐adrenoceptor [1]): 0.00316 µM

SMILES: CC(C)(C)NC[C@H](O)COc1cccc2[nH]c(C#N)cc12 [S-cyanopindolol]
- Log KD α2A (human α2A‐adrenoceptor [1]; [5]): -5.56 ± 0.10
- Log KD α2B, apparent affinity (app) (human α2B‐adrenoceptor; log KD (negative), apparent KD: maximum concentration inhibited most but not all specific binding, IC50 from extrapolated curve): -4.82 ± 0.10^app
- Log KD α2C (human α2C‐adrenoceptor; [5]): -6.15 ± 0.07

— publication PMC8882856, “The affinity and selectivity of α‐adrenoceptor antagonists, antidepressants and antipsychotics for the human α2A, α2B, and α2C‐adrenoceptors and comparison with human α1 and β‐adrenoceptors” (Pharmacology Research & Perspectives, 2022)
